Biological target: T1, aryl hydrocarbon receptor (AhR) (Mus musculus, UniProt P30561)
T1 construct: purified mouse AhR:ARNT complex; with ARNT
Assay: fluorescence quenching assay (intrinsic ligand fluorescence) with purified AhR:ARNT
Type: binding

T1 sequence (P30561 10-848): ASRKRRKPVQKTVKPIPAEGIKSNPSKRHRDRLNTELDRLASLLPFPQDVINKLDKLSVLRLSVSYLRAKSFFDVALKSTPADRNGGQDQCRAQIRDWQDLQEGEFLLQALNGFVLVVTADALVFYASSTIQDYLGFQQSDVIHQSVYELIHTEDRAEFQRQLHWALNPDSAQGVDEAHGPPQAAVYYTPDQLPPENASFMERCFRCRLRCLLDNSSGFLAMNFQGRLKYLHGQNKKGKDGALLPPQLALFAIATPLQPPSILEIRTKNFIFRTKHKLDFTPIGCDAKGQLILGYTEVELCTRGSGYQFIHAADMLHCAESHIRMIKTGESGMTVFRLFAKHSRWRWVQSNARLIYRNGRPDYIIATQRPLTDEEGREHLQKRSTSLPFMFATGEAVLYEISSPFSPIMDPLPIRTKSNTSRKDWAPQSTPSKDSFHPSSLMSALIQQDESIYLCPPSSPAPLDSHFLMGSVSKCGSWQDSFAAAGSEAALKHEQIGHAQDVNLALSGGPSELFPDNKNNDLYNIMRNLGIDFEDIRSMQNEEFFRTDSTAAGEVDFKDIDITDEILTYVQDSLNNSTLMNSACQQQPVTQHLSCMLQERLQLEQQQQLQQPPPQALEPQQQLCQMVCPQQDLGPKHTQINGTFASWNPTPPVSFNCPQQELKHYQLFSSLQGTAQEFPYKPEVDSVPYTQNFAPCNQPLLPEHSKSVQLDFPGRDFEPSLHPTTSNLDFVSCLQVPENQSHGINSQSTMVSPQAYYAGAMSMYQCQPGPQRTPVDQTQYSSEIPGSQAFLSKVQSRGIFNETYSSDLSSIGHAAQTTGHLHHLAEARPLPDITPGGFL
T1 sequence (P53762 2-791 partner): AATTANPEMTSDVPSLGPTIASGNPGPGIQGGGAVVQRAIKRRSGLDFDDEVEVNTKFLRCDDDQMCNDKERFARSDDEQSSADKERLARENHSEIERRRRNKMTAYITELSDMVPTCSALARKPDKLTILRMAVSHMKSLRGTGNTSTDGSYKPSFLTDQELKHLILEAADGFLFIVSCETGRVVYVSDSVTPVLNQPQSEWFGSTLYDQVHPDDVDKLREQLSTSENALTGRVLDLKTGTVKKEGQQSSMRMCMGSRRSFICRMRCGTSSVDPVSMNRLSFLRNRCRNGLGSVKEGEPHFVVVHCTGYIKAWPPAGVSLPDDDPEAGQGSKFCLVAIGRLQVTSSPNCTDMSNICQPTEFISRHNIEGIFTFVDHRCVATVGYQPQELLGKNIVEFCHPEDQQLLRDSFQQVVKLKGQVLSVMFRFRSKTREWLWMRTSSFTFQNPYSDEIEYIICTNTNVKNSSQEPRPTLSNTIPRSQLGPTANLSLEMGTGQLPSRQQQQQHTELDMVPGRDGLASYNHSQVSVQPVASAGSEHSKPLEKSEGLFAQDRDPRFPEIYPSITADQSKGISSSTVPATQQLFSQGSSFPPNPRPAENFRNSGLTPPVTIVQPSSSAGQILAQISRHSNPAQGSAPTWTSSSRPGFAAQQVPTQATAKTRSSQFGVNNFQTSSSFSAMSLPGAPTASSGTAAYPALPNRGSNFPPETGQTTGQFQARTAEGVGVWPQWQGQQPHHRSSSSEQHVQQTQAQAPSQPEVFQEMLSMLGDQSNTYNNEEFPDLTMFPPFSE

CCS(=O)(=O)c1ccc2oc(-c3ccc4ccccc4c3)nc2c1 [compound 1, ezutromid]
Kd: 50.1 ± 22.1 nM

Source: paper PMC7003794, “Chemical Proteomics and Phenotypic Profiling Identifies the Aryl Hydrocarbon Receptor as a Molecular Target of the Utrophin Modulator Ezutromid” (Angewandte Chemie (International Ed. in English), 2020)
